Measured values: PubChem BioAssay (NCI)
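Cells were grown in 96-well plates and exposed to each compound for 48 hours at five concentrations; endpoints were interpolated linearly between bracketing concentrations, or set to the highest concentration if not reached. Abbreviation: GI50, concentration required for 50% inhibition of growth. The concentration for full growth arrest is given as TGI.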

Experiments:
Test in all cases: DTP human tumour cell line panel, 48 h
BT-549 breast = system: BT-549 breast
DU-145 prostate = system: DU-145 prostate
EKVX NSCLC = system: EKVX NSCLC
HOP-92 NSCLC = system: HOP-92 NSCLC
KM12 colon = system: KM12 colon
OVCAR-3 ovarian = system: OVCAR-3 ovarian
OVCAR-4 ovarian = system: OVCAR-4 ovarian
PC-3 prostate = system: PC-3 prostate
SF-539 CNS = system: SF-539 CNS
SK-MEL-5 melanoma = system: SK-MEL-5 melanoma

Row | Structure (SMILES) | GI50 (BT-549 breast) | TGI (BT-549 breast) | GI50 (DU-145 prostate) | TGI (DU-145 prostate) | GI50 (EKVX NSCLC) | TGI (EKVX NSCLC) | GI50 (HOP-92 NSCLC) | TGI (HOP-92 NSCLC) | GI50 (KM12 colon) | TGI (KM12 colon) | GI50 (OVCAR-3 ovarian) | TGI (OVCAR-3 ovarian) | GI50 (OVCAR-4 ovarian) | TGI (OVCAR-4 ovarian) | GI50 (PC-3 prostate) | TGI (PC-3 prostate) | GI50 (SF-539 CNS) | TGI (SF-539 CNS) | GI50 (SK-MEL-5 melanoma) | TGI (SK-MEL-5 melanoma)
1 | CCCCc1cc(O)ccc1O | 6.12 µM | > 100 µM | 80.7 µM | > 100 µM | 41.9 µM | > 100 µM | 26.1 µM | > 100 µM | 16.4 µM | > 100 µM | 7.84 µM | 21.8 µM | 13.1 µM | 26.3 µM | 10.5 µM | > 100 µM | 11.5 µM | 45.4 µM | 58.3 µM | > 100 µM
2 | C=C1C(=O)O[C@H]2[C@H]1CC/C(COC(=O)c1ccc(C(=O)O)s1)=C\CC[C@@]1(C)O[C@@H]21 | 1.72 µM | 4.85 µM | 1.59 µM | 3.13 µM | 2.21 µM | 5.68 µM | 1.61 µM | 3.45 µM | 2.82 µM | 8.46 µM | 1.43 µM | 2.98 µM | 3.18 µM | 10.5 µM | 2.9 µM | 11.4 µM | 1.62 µM | 3.04 µM | 3.64 µM | 13.3 µM
3 | Cc1ccc(-c2cc3nc(-c4ccccc4)nc(C(Cl)Cl)n3n2)cc1 | 15.2 µM | > 50 µM | 0.573 µM | 1.2 µM | 0.752 µM | 1.51 µM | 0.725 µM | 1.62 µM | 0.701 µM | 1.96 µM | 0.737 µM | 1.47 µM | 0.671 µM | 1.73 µM | 0.781 µM | 2.05 µM | 0.911 µM | 2.19 µM | > 50 µM | > 50 µM
4 | O=C1Cc2c(-c3ccccc3)cc(-c3cccc(Cl)c3)nc2-c2ccccc2N1 | – | 22.1 µM | – | 11.8 µM | – | 12.6 µM | – | 5.42 µM | – | > 75.3 µM | – | 6.84 µM | – | 5.71 µM | – | 23.2 µM | – | > 29.9 µM | – | > 48.7 µM
5 | COC1C(=O)CCC2(CO2)C1(O)C1(C)OC1CCC(C)C (stereo not given) | – | > 100 µM | – | > 100 µM | – | > 100 µM | – | > 100 µM | – | > 100 µM | – | > 100 µM | – | > 100 µM | – | > 100 µM | – | > 100 µM | – | > 100 µM
6 | OCC1OC(N2C=C(c3nc4ccccc4s3)C3C=CC=CC32)C(O)C1O (stereo not given) | 9.55 µM | 27.5 µM | 8.2 µM | 25.8 µM | 6.27 µM | 25.4 µM | 6.62 µM | 20.5 µM | 8.95 µM | 23.4 µM | 13.4 µM | 36.6 µM | 14.3 µM | > 50 µM | 8.59 µM | 42.4 µM | 8.08 µM | 17.8 µM | 6.1 µM | 14.5 µM
7 | OCCCNCc1ccccn1 | – | > 100 µM | – | > 100 µM | – | > 100 µM | – | > 100 µM | – | > 100 µM | – | > 100 µM | – | > 100 µM | – | > 100 µM | – | > 100 µM | – | > 100 µM
8 | CCN(CC)CC(C)Nc1ccc(C)c2sc3ccccc3c(=O)c12 (stereo not given) | 7.14 µM | 21 µM | 6.68 µM | 19.1 µM | 7.86 µM | 24.2 µM | 0.896 µM | 8.36 µM | 4.71 µM | 16.9 µM | 6.33 µM | 19.2 µM | 7.61 µM | 20.5 µM | 3.6 µM | 16.6 µM | 3.2 µM | 12.7 µM | 1.48 µM | 2.85 µM
9 | COc1ccc(N=Cc2ccc(N(CCC#N)CCC#N)cc2)cc1 | – | > 100 µM | – | > 100 µM | – | > 100 µM | – | > 100 µM | – | > 100 µM | – | > 100 µM | – | > 100 µM | – | > 100 µM | – | 78.7 µM | – | > 100 µM
10 | Nc1ncnc2c1ncn2C1OC(C(=O)O)C(O)C1O (stereo not given) | – | > 100 µM | – | > 100 µM | – | > 100 µM | – | > 100 µM | – | > 100 µM | – | > 100 µM | – | > 100 µM | – | > 100 µM | – | > 100 µM | – | > 100 µM
11 | Nc1ccc2c(c1)[O][Sn]([c]1ccccc1)([c]1ccccc1)[O]C2=O | 1.98 µM | 6.4 µM | 15.5 µM | 28.9 µM | 10.6 µM | 25 µM | 2.59 µM | 7.11 µM | 16.5 µM | 33.5 µM | 6.79 µM | 15.9 µM | 12.9 µM | 28.4 µM | 12.4 µM | 24.9 µM | 9.5 µM | 18.8 µM | 11.6 µM | 25 µM
12 | C=C1C(O)C2C(=C(CC(C)C)C13CC3)C(=O)C(C)(C)C2OC (stereo not given) | > 100 µM | > 100 µM | > 100 µM | > 100 µM | > 100 µM | > 100 µM | 97 µM | > 100 µM | > 100 µM | > 100 µM | > 100 µM | > 100 µM | > 100 µM | > 100 µM | > 100 µM | > 100 µM | > 100 µM | > 100 µM | > 100 µM | > 100 µM
13 | OC1CCC(C2C3CCCCC3C3CCCCC3C2C2CCC(O)CC2)CC1 (stereo not given) | – | 8.87 µM | – | > 100 µM | – | > 100 µM | – | 98.9 µM | – | 15.5 µM | – | > 100 µM | – | 16 µM | – | > 100 µM | – | 75.5 µM | – | 23.5 µM
14 | CCc1ccc(C2=C(O)C(=O)C(c3ccc(CC)cc3)=C(O)C2=O)cc1 | 1.76 µM | 5.62 µM | 2.81 µM | 10.6 µM | 2.35 µM | 8.64 µM | 1.24 µM | 4.33 µM | 1.69 µM | 4.04 µM | 1.57 µM | 3.13 µM | 2.18 µM | 7.75 µM | 2.17 µM | 7.95 µM | 1.8 µM | 4.45 µM | 1.89 µM | 3.86 µM
15 | C=C(CNCCO)[C@@H]1CC[C@]2(CO)CC[C@]3(C)[C@H](CC[C@@H]4[C@@]5(C)CCC(NCCc6ccc(O)cc6)C(C)(C)[C@@H]5CC[C@]43C)[C@@H]12 (stereo not given in full) | 1.55 µM | 3.23 µM | 1.6 µM | 3.03 µM | 1.46 µM | 3.11 µM | 0.822 µM | 2.29 µM | 1.39 µM | 2.92 µM | 1.82 µM | 3.73 µM | 1.44 µM | 3 µM | 1.38 µM | 3.07 µM | 1.52 µM | 2.91 µM | 1.69 µM | 3.13 µM
